This note sets out measurements from patent publication US12275731B2, “Azaindole inhibitors of wild-type and mutant forms of LRRK2” (DANA-FARBER CANCER INSTITUTE, INC., priority 2018, dated 2025).

Assay in all cases: KinomeScan profiling
What all share (assay type): binding

The target in one test is CSNK1G2 (Homo sapiens, UniProt P78368). The settings on record: CSNK1G2, 1 μM; read-out: % control. The method, boiled down:
(§1)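 Single-point competition binding screen: 1 μM, DMSO, 468 kinases. Results reported as % control from RLU, normalised to DMSO and positive-control wells. Activity threshold: <35% control.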

For a further test, the target named is T1, IRAK3 (Homo sapiens, UniProt Q9Y616).
T1 construct: purchased KinomeScan®
T1 sequence (Q9Y616 1-596): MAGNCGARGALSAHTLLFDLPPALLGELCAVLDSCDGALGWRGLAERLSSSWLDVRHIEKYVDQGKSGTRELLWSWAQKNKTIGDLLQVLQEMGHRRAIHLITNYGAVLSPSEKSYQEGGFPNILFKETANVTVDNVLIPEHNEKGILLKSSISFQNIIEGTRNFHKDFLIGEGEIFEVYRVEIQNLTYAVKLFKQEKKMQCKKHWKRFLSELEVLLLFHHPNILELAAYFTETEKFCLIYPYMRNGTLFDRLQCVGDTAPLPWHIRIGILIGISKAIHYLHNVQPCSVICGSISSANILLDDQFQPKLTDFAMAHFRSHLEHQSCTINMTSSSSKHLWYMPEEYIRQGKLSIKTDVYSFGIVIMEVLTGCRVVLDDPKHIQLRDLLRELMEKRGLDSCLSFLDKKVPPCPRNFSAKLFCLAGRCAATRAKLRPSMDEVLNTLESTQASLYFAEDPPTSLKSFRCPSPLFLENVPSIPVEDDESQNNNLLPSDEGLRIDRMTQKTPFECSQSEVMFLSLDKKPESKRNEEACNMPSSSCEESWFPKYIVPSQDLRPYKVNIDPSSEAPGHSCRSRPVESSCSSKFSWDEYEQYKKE
The note with it: IRAK3, 1 μM; read-out: % control. The method, boiled down: as §1

A further test concerns the target MAP3K1 (Homo sapiens, UniProt Q13233). The settings on record: MAP3K1, 1 μM; read-out: % control. Summed up: as §1
For another test, the target named is MKNK1 (Homo sapiens, UniProt Q9BUB5). The note with it: MKNK1, 1 μM; read-out: % control. The method, boiled down:
as §1

The target of another test is T2, PHKG2 (Homo sapiens, UniProt P15735).
T2 sequence (P15735 1-406): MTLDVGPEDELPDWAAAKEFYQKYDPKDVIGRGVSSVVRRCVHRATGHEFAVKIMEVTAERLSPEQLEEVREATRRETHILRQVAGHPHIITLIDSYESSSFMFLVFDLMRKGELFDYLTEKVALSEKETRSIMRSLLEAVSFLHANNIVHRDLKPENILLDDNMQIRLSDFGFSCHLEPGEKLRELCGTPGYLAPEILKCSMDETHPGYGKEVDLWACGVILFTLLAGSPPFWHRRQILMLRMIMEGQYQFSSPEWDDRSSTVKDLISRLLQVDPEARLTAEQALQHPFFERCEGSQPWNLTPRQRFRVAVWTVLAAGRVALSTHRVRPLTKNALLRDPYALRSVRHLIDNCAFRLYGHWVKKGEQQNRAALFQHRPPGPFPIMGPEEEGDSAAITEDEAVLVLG
The settings on record: PHKG2, 1 μM; read-out: % control. Summed up:
as §1

The target of another test is T3, PIK3CD (Homo sapiens, UniProt O00329).
T3 construct: purchased KinomeScan® (panel service)
T3 sequence (O00329 1-1044): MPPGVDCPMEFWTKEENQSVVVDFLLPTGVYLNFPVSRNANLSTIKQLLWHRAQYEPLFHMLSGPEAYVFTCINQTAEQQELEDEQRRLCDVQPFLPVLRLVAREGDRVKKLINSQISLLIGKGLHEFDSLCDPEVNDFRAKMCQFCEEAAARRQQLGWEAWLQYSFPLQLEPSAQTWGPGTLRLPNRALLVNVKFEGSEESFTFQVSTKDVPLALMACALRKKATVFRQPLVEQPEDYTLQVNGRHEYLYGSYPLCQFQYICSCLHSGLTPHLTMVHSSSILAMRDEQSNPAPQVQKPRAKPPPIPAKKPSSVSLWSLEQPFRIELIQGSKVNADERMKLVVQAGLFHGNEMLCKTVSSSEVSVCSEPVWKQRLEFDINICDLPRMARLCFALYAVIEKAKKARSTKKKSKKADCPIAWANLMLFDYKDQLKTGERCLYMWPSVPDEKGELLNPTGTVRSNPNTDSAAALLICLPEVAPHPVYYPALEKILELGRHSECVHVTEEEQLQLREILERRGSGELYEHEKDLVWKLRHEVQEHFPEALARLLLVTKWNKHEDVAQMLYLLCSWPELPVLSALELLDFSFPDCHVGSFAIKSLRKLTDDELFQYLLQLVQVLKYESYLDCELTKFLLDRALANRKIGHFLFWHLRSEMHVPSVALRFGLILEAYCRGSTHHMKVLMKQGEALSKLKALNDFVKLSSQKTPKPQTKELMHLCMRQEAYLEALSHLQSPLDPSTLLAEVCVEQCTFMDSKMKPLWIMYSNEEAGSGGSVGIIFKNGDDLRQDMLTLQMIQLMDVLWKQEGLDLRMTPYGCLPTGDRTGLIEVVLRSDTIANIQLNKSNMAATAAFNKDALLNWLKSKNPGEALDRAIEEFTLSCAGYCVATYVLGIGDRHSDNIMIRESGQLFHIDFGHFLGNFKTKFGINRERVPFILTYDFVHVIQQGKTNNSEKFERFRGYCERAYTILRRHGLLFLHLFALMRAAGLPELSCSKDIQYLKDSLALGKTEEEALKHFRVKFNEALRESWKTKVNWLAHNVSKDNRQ
The note with it: read-out: % control. Summed up: as §1

The target of a further test is T4, PIP5K1A (Homo sapiens, UniProt Q99755).
T4 construct: purchased KinomeScan® (panel service)
T4 sequence (Q99755 whole entry): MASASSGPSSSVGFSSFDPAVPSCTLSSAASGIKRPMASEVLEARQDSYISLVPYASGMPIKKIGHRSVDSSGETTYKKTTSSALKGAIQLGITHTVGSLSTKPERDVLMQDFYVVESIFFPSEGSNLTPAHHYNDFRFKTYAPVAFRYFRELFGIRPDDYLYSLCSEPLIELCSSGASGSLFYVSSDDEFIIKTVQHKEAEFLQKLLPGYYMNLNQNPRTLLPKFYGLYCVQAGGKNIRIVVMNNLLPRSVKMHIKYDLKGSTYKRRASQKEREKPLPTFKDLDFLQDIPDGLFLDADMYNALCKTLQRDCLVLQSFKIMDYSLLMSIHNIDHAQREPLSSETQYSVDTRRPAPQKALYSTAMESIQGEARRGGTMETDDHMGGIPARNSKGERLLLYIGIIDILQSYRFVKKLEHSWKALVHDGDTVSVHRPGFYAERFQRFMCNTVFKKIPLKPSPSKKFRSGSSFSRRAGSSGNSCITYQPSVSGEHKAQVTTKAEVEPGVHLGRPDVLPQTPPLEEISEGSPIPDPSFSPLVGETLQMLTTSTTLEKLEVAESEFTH
The settings on record: read-out: % control. Summed up: as §1

Test [1] has as its target T5, RPS6KA4(Kin.Dom.2-C-terminal) (Homo sapiens, UniProt O75676).
T5 construct: RPS6KA4(Kin.Dom.2-C-terminal)
The settings on record: read-out: % control. Summed up: as §1

The target in another test is T6, SRPK3 (Homo sapiens, UniProt Q9UPE1).
T6 construct: purchased KinomeScan® (panel service)
T6 sequence (Q9UPE1 whole entry): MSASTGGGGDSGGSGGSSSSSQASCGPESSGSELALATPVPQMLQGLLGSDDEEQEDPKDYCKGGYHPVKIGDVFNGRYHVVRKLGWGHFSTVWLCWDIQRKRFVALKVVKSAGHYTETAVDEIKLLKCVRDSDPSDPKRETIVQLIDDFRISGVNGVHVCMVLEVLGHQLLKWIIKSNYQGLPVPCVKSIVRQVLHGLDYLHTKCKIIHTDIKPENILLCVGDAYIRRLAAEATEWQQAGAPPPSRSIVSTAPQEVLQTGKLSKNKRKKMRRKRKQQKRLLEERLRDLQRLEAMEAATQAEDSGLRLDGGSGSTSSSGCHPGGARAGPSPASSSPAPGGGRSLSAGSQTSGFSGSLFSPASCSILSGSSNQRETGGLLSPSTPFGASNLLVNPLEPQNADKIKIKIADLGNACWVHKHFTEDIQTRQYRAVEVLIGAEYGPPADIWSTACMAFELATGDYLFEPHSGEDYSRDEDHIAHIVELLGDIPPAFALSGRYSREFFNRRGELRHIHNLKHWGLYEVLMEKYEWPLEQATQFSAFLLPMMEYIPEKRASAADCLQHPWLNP
The note with it: SRPK3, 1 μM; read-out: % control. Summed up:
as §1

For the next test, the target named is TGFBR2 (Homo sapiens, UniProt P37173). The settings on record: TGFBR2, 1 μM; read-out: % control. The method, boiled down:
as §1

Sequence of MKNK1 (Q9BUB5 whole entry): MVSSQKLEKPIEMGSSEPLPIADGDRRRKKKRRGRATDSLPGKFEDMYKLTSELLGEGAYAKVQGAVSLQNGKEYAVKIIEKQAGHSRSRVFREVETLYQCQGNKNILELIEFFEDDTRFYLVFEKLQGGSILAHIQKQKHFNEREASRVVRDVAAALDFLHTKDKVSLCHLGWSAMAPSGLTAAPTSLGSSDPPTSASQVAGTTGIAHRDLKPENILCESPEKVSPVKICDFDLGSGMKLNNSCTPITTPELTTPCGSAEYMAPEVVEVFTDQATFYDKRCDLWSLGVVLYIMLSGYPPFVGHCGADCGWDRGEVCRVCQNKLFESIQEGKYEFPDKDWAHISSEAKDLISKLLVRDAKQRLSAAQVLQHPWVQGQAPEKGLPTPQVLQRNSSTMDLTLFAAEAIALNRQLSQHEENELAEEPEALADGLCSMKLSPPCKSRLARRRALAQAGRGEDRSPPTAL
Sequence of TGFBR2 (P37173 23-567): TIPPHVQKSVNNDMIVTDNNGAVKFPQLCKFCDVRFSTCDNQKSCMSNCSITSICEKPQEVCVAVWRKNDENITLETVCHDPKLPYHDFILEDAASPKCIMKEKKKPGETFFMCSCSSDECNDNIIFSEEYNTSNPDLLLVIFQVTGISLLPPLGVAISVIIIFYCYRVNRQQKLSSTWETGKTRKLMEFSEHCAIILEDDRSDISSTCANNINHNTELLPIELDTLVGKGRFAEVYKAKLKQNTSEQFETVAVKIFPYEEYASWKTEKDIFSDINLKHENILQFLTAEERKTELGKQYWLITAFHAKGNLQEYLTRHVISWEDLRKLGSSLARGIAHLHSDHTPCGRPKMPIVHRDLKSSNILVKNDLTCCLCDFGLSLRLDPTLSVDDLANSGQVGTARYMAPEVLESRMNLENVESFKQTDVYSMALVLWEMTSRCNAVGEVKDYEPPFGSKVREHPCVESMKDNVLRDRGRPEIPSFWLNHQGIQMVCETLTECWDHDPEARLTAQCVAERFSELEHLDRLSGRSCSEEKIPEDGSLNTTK
Sequence of MAP3K1 (Q13233 whole entry): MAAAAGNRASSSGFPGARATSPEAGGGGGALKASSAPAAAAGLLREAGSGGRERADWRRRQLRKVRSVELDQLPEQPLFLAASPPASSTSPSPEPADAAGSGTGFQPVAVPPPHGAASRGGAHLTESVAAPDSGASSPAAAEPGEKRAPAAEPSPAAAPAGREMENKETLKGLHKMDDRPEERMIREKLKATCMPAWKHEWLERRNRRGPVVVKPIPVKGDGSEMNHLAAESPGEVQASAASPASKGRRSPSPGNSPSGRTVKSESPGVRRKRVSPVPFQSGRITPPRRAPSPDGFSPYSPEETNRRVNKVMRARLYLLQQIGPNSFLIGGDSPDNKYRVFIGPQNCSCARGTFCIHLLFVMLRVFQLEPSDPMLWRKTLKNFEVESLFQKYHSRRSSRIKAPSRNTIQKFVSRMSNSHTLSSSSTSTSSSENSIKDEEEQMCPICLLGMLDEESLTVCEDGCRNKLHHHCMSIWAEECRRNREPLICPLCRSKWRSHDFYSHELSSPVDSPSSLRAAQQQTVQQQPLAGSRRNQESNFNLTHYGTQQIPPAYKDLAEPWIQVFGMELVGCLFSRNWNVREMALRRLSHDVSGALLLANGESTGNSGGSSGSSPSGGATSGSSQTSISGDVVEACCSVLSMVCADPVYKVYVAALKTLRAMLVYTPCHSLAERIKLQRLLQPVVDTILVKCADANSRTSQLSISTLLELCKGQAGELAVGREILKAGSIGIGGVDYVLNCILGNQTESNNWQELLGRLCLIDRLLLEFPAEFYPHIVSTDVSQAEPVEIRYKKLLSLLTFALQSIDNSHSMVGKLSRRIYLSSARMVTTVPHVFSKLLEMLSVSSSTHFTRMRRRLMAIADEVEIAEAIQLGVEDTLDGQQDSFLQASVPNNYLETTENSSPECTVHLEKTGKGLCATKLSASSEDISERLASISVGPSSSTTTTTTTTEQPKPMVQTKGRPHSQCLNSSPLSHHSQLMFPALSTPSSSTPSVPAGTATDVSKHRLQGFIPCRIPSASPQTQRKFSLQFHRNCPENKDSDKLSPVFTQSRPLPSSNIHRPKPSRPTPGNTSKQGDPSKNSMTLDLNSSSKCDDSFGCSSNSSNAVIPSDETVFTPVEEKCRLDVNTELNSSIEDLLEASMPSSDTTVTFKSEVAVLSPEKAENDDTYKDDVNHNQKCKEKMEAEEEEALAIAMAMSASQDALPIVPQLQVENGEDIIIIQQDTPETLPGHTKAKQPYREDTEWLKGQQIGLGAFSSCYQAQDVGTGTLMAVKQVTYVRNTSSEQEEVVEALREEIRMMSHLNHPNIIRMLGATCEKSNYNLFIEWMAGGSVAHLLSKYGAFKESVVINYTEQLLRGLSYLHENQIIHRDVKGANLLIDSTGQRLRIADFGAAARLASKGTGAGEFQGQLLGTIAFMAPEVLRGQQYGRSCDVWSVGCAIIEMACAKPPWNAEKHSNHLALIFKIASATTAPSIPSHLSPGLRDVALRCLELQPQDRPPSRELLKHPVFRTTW
T5 sequence (O75676 411-674 limits assumed): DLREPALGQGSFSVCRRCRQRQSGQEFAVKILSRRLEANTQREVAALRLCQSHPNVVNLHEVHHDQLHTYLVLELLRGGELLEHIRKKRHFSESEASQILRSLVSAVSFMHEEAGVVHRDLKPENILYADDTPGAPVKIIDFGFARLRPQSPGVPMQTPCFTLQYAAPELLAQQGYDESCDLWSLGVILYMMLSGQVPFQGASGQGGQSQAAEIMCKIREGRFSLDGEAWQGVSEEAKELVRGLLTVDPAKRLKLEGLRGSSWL
Sequence of CSNK1G2 (P78368 whole entry): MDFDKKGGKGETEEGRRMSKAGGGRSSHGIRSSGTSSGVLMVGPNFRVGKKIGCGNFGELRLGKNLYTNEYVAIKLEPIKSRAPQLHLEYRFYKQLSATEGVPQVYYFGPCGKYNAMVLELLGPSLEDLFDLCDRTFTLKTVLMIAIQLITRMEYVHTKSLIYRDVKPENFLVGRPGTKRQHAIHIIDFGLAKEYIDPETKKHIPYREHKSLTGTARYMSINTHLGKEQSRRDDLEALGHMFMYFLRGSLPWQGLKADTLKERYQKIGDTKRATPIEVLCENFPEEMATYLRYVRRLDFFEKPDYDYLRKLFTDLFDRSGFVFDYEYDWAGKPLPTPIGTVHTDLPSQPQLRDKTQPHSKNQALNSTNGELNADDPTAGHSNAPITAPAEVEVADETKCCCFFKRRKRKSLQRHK

`CNc1c(-c2cnn([C@H]3CCN(C(C)=O)C[C@@H]3F)c2)cnc2[nH]cc(Cl)c12` [Compound 77, 1-((3S,4S)-4-(4-(3-chloro-4-(methylamino)-1H-pyrrolo[2,3-b]pyridin-5-yl)-1H-pyrazol-1-yl)-3-fluoropiperidin-1-yl)ethan-1-one]: the remaining binding at 1 µM at CSNK1G2 was 81%; on IRAK3 it was 40%; on MAP3K1, 56%; on MKNK1, 97%; on PHKG2, 52%; on PIK3CD, 85%. In addition, the remaining binding at 1 µM at PIP5K1A worked out at 7.7%; in test [1] it was 90%; on SRPK3 it was 16%; on TGFBR2 it was 100%.

Take `CNc1c(-c2ccc(C(=O)N3CCC(N4CCOCC4)CC3)cc2)cnc2[nH]cc(Cl)c12` [Compound 96, (4-(3-chloro-4-(methylamino)-1H-pyrrolo[2,3-b]pyridin-5-yl)phenyl)(4-morpholinopiperidin-1-yl)methanone]: the remaining binding at 1 µM was 93% on CSNK1G2; 76% on IRAK3; 73% at MAP3K1; 100% at MKNK1; 19% at PHKG2; 84% on PIK3CD. Also, the remaining binding at 1 µM at PIP5K1A was determined as 16%; in test [1], 65%; at SRPK3, 17%; on TGFBR2, 100%.

In the case of `O=C(c1ccc(-c2cnc3[nH]cc(Cl)c3c2NC2CCCC2)cc1)N1CCC(N2CCOCC2)CC1` [Compound 101, (4-(3-chloro-4-(cyclopentylamino)-1H-pyrrolo[2,3-b]pyridin-5-yl)phenyl)(4-morpholinopiperidin-1-yl)methanone], the remaining binding at 1 µM on CSNK1G2 is 73%; on IRAK3, 37%; at MAP3K1, 100%; at MKNK1, 100%; at PHKG2, 100%; at PIK3CD, 100%. Further, the remaining binding at 1 µM is 12% on PIP5K1A, 99% in test [1], 9.9% at SRPK3 and 100% at TGFBR2.
